Data on 18 compounds can be found in ChEMBL document CHEMBL5108009, “Positron Emission Tomography (PET) Imaging Tracers for Serotonin Receptors” (J Med Chem, 2022).

Series [1] addresses T1, Alpha-1A adrenergic receptor (Rattus norvegicus, UniProt P43140).
T1 sequence (P43140 whole entry): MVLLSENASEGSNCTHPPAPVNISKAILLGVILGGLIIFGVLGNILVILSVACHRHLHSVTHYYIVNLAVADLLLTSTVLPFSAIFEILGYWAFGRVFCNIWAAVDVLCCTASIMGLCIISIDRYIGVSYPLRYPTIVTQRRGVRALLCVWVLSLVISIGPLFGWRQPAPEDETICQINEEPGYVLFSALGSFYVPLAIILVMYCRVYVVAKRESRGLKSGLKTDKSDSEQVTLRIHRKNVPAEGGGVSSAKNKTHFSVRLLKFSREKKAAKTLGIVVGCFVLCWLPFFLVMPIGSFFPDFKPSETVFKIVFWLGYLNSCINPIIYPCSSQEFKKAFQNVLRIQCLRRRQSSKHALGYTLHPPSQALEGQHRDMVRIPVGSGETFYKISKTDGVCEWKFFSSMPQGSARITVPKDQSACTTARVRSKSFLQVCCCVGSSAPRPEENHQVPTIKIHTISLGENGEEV
Description: Displacement of [3H]prazosin from rat whole brain alpha1 adrenergic receptor. In kind it is tissue-based.

Series [2] has as its target T2, D(2) dopamine receptor (Rattus norvegicus, UniProt P61169). Description: Displacement of [3H]-spiperone from rat striatal membrane D2 receptor. In kind it is cell membranes, Striatum.
The target of series [3] is T3, 5-hydroxytryptamine receptor 2A (Rattus norvegicus, UniProt P14842). Description: Displacement of [3H]-Ketanserin from rat cortical membrane 5-HT2A receptor. In kind it is cell membranes, Cortex.
T3 sequence (P14842 whole entry): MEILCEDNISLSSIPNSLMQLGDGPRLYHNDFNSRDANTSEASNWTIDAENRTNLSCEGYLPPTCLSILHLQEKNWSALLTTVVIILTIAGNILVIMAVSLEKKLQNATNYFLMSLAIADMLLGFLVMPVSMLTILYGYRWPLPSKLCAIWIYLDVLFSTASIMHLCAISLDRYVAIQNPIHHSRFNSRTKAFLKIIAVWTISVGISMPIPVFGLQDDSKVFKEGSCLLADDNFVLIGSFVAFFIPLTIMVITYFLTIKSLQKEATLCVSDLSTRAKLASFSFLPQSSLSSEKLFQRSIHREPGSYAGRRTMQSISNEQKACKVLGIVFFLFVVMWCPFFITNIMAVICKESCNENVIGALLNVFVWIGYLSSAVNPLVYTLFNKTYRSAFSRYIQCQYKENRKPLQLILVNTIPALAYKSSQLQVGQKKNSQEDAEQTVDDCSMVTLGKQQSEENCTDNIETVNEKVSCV
Series [4] is described as follows: Ratio of drug uptake in Wistar rat cortex to cerebellum at 10 MBq measured at 30 mins. In kind it is ADME, tissue-based. The conditions noted are these: in vivo, 0.5 h.
Series [5] is described as follows: Drug uptake in Wistar rat frontal cortex assessed as non-displaceable binding potential at 10 MBq measured at 5 to 60 mins. In kind it is ADME, tissue-based. Particulars: in vivo, time 5-60 min.
For series [6], the target named is T4, 5-hydroxytryptamine receptor 2A (Homo sapiens, UniProt P28223). Description: Inverse agonist activity at human 5-HT2A receptor incubated for 3 hrs by radioligand binding assay. In kind it is functional.
T4 sequence (P28223 whole entry): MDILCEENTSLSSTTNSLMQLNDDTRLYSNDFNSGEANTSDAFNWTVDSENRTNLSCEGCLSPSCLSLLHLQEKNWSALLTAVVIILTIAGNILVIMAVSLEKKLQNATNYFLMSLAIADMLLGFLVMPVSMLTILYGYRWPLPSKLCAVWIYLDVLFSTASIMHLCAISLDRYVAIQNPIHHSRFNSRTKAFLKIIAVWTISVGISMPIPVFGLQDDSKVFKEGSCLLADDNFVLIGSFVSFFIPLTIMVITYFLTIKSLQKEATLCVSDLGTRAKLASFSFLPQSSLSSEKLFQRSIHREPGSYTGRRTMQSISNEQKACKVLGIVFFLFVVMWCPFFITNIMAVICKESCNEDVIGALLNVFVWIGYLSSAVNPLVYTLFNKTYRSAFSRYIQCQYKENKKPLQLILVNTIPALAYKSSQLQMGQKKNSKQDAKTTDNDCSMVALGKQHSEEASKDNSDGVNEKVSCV
The target in series [7] is T4, 5-hydroxytryptamine receptor 2A. As to the kind of experiment: Antagonist activity at human 5-HT2A receptor incubated for 3 hrs by radioligand binding assay. Format: functional.
The nature of series [8]: Biodistribution in Wistar rat assessed as uptake ratio of cortex to cerebellum at 50 to 100 microCi measured after 2 hrs. In kind it is ADME, organism-based. The conditions noted are these: in vivo, dose 50-100 microCi.
The nature of series [9]: Ratio of drug uptake in baboon striatum to cerebellum measured at 60 mins postinjection. The conditions noted are these: in vivo, 1 h. Format: ADME, organism-based, Papio.
Series [10] in a line: Ratio of drug uptake in human striatum to cerebellum. Format: ADME, tissue-based.
Series [11] in a line: Ratio of drug uptake in human frontal cortex to cerebellum. In kind it is ADME, tissue-based, Brain frontal cortex/cerebellum.
Series [12] is described as follows: Ratio of drug uptake in baboon cerebral cortex to cerebellum measured at 60 mins postinjection. Format: ADME, organism-based, Papio. Particulars: in vivo, 1 h.
The nature of series [13]: Ratio of drug uptake in human cortex to cerebellum assessed as increase in uptake relative to control. Format: ADME, tissue-based.
Series [14] concerns the target T5, Serotonin 2 (5-HT2) receptor (Homo sapiens, UniProt P41595+P28223+P28335). Description: Binding affinity to 5-HT2 receptor (unknown origin) assessed as dissociation constant. Format: protein assay.
Series [15] addresses T3, 5-hydroxytryptamine receptor 2A. As to the kind of experiment: Antagonist activity at rat 5-HT2A receptor. Format: functional.
The nature of series [16]: Drug uptake in rat brain frontal cortex relative to control. Format: ADME, tissue-based. The conditions noted are these: in vivo.
Series [17] is described as follows: Ratio of drug uptake in rat cortex to cerebellum at steady state. Format: ADME, tissue-based. Particulars: in vivo.
Series [18] is described as follows: Drug uptake in human frontal cortex assessed as non-displaceable binding potential. Format: ADME, tissue-based.
The nature of series [19]: Binding affinity to rat cerebral cortex homogenate 5-HT1A receptor assessed as inhibition constant. In kind it is tissue-based.
Series [20] addresses T4, 5-hydroxytryptamine receptor 2A. As to the kind of experiment: Binding affinity to human frontal cortex homogenate 5-HT2A by ketanserin assay. Format: tissue-based.
For series [21], the target named is T1, Alpha-1A adrenergic receptor. As to the kind of experiment: Displacement of [3H]prazosin from rat cerebral cortex alpha1 adrenergic receptor. In kind it is tissue-based.
The target of series [22] is T3, 5-hydroxytryptamine receptor 2A. As to the kind of experiment: Binding affinity to rat frontal cortex homogenate 5-HT2A by ketanserin assay. In kind it is tissue-based.
In series [23] the target is T2, D(2) dopamine receptor. As to the kind of experiment: Displacement of [3H]-spiperone from rat striatum D2 receptor.
In series [24] the target is Serotonin 2 (5-HT2) receptor (Rattus norvegicus, UniProt P30994+P08909+P14842). Description: Displacement of [3H]-spiperone from rat frontal cortex 5-HT2 receptor. In kind it is tissue-based.
Series [25] concerns the target T3, 5-hydroxytryptamine receptor 2A. As to the kind of experiment: Binding affinity to rat frontal cortex 5-HT2A assessed as dissociation constant. Format: tissue-based.
For series [26] the target is unchanged. As to the kind of experiment: Binding affinity to rat frontal cortex 5-HT2A assessed as inhibition constant. Format: tissue-based.
Series [27] deals with T2, D(2) dopamine receptor. As to the kind of experiment: Displacement of [3H]-haloperidol from rat striatal homogenate D2 receptor. In kind it is tissue-based, Striatum.
For series [28], the target named is T1, Alpha-1A adrenergic receptor. Description: Displacement of [3H]-WB4101 from rat forebrain homogenate alpha 1 adrenergic receptor. Format: tissue-based.
The target of series [29] is T3, 5-hydroxytryptamine receptor 2A. Description: Displacement of [3H]-spiperone from rat frontal cortex homogenate 5-HT2A receptor. In kind it is tissue-based.
In series [30] the target is T1, Alpha-1A adrenergic receptor. As to the kind of experiment: Displacement of [3H]-prazosin from rat whole cortex membrane homogenate alpha 1 adrenergic receptor. Format: cell membranes.
The target in series [31] is T2, D(2) dopamine receptor. Description: Displacement of [3H]-spiperone from rat frontal cortex membrane homogenate D2 receptor. In kind it is cell membranes.
The target of series [32] is T1, Alpha-1A adrenergic receptor. As to the kind of experiment: Binding affinity to rat forebrain homogenate membrane alpha 1 adrenergic receptor incubated for 10 mins. In kind it is cell membranes.
Another series deals with Histamine H1 receptor (Cavia porcellus, UniProt P31389). Description: Binding affinity to guinea pig cerebellum homogenate membrane H1 receptor incubated for 30 mins. Format: cell membranes.
Chain of Histamine H1 receptor (P31389 whole entry): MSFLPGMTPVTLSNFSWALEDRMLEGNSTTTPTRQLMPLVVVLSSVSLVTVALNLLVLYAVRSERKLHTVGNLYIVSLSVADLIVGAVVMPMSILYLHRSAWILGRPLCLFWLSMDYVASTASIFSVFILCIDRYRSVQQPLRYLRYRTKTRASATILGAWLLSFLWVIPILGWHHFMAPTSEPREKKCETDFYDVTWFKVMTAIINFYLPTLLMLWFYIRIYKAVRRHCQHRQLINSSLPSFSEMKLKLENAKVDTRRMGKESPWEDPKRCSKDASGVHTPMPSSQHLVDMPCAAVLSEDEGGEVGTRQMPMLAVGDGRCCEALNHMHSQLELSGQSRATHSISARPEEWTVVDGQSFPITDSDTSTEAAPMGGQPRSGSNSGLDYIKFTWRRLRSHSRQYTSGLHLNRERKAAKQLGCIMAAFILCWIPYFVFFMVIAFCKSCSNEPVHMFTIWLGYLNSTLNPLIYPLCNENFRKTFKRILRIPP
The target of series [33] is T2, D(2) dopamine receptor. Description: Binding affinity to rat striatum homogenate membrane D2 receptor incubated for 10 mins. Format: cell membranes.
The nature of series [34]: Ratio of drug uptake in human frontal cortex to cerebellum at 15 mCi measured after 30 mins postinjection by PET imaging. In kind it is ADME, organism-based, Brain frontal cortex/cerebellum. The conditions noted are these: in vivo, 0.5 h.
Series [35] can be described thus: Ratio of drug uptake in human frontal cortex to cerebellum at 15 mCi measured after 60 mins postinjection by PET imaging. Format: ADME, organism-based, Brain frontal cortex/cerebellum. The conditions noted are these: in vivo, 1 h.
Series [36] has as its target T5, Serotonin 2 (5-HT2) receptor. Description: Binding affinity to cerebrum 5-HT2 receptor (unknown origin). In kind it is tissue-based.
Series [37] has as its target T1, Alpha-1A adrenergic receptor. Description: Displacement of [3H]-WB4101 from rat forebrain alpha 1 adrenergic receptors. In kind it is tissue-based.
Series [38] has as its target T2, D(2) dopamine receptor. Description: Displacement of [3H]-halopridol from rat striatum D2 receptors.

T2 sequence (P61169 whole entry): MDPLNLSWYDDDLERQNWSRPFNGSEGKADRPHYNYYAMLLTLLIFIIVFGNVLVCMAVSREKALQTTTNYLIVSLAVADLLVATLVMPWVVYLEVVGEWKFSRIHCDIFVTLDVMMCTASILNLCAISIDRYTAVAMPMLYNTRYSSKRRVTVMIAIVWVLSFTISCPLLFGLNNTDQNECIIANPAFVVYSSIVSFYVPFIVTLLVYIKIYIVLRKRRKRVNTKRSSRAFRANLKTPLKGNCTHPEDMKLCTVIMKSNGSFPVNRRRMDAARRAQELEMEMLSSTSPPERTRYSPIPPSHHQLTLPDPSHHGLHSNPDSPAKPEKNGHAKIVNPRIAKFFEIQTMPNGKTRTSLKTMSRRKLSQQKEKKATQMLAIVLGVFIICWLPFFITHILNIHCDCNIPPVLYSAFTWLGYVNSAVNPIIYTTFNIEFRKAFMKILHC

On to `Cc1ccc2c(c1)c(-c1ccc(F)cc1)c(C)n2C1CCN(C)CC1`, for which the Ki is 2700 nM in series [1], 2600 nM at D(2) dopamine receptor [2] and 5.3 nM in series [3].
Turning to `COc1c(OCC[18F])cccc1[C@H](O)C1CCN(CCc2ccc(F)cc2)CC1`, in [4], the Ratio was found to be 2.7. The Drug uptake in [5] was found to be 1.45.
Take `COc1ccc(C(=O)N(Cc2ccc(C)cc2)C2CCN(C)CC2)cc1`: the figures for the Ki in series [6] and in series [7] were 2.1 nM and 2.5 nM, respectively.
With `O=C(c1ccc([18F])cc1)C1CCN(CCn2c(=S)[nH]c3ccccc3c2=O)CC1`, the Ratio in [8] was found to be 11.
Regarding `Cc1nc2n(c(=O)c1CCN1CCC(C(=O)c3ccc([18F])cc3)CC1)CCS2`, the Ratio was 3.5 in series [9], 2.38 in series [10], 2.53 in [11] and 3 in series [12].
Consider `[2H]C([2H])(Cn1c(=S)[nH]c2ccccc2c1=O)N1CCC(C(=O)c2ccc([18F])cc2)CC1`, for which the Drug uptake in series [13] is on record as 26%.
As for `CN(C)CCO/N=C(/C=C/c1ccc(O)cc1)c1ccccc1F` [EPLIVANSERIN], the Kd in series [14] is reported as 1.2 nM.
For `COc1cccc(CCc2ccccc2OCC[C@@H]2C[C@@H](O)CN2C)c1`, the Ki in [15] was 0.79 nM.
In turn, `COc1cccc([C@H](O)C2CCN(CCc3ccc([18F])cc3)CC2)c1OC` registered a Drug uptake in series [16] of more than 94%.
On to `COc1c(OCC[18F])cccc1C(O)C1CCN(CCc2ccc(F)cc2)CC1` (racemic), for which, in series [17], the Ratio is on record as 3.2. Further, in series [18], the Drug uptake worked out at 1.5.
Regarding `O=S1(=O)c2cccc3cccc(c23)N1CCCN1CCN(c2ccc(F)cc2)CC1` [FANANSERIN], the Ki in series [19] is 70 nM.
`CN1CN(c2ccccc2)C2(CCN(CCCC(=O)c3ccc(F)cc3)CC2)C1=O` [MESPIPERONE]: the figures for the Ki in series [20] and in series [22] were 8.8 nM and 0.5 nM, respectively. For the same compound, the IC50 worked out at 10.1 nM in series [21], 0.23 nM on D(2) dopamine receptor [23] and 1.3 nM in series [24].
Turning to `CC1(NC(=O)c2ccc(N)cc2)CCN(CCCOc2ccc(F)cc2)CC1`, the equilibrium dissociation constant (Kd) in series [25] is 0.11 nM. Further, the Ki in series [26] turned out to be 0.2 nM.
With `Cc1nc2n(c(=O)c1CCN1CCC(C(=O)c3ccc(F)cc3)CC1)CCS2` [SETOPERONE], the Ki at D(2) dopamine receptor [27] stood at 24 nM; in series [28], 12 nM; in [29], 2.3 nM.
As for `CCN(CC)C(=O)[C@@H]1C=C2c3cccc4c3c(c(Br)n4C)CC2N(C)C1` (some centres undefined), the Ki in series [30] worked out at 34 nM; at D(2) dopamine receptor [31], 3.9 nM.
For `O=C(c1ccc(F)cc1)C1CCN(CCn2c(=O)[nH]c3ccccc3c2=O)CC1` [KETANSERIN], the results for the Ki (in [32]; on Histamine H1 receptor; on D(2) dopamine receptor [33]) were 10 nM, 10 nM and 220 nM, respectively.
For the compound `CCN(CC)C(=O)[C@@H]1C=C2c3cccc4c3c(c(Br)n4[11CH3])CC2N(C)C1` (some centres undefined), the Ratio in series [34] was 1.7; in series [35] it was 2.7. Moreover, the Ki in [36] was 0.5 nM.
`O=C(c1ccc(F)cc1)C1CCN(CCn2c(=S)[nH]c3ccccc3c2=O)CC1` [ALTANSERIN]: the Ki in series [37] was 5 nM; at D(2) dopamine receptor [38], 62 nM.
